{"source": "patent US20030225101A1", "about": "(priority 2002, published 2003)", "origin": "cited, not measured here", "key": {"[1]": {"conditions": "oral administration"}, "[2]": {"system": "isolated corpus cavernosum"}}, "data": [{"compound": "CCCc1nn(C)c2c(=O)[nH]c(-c3cc(S(=O)(=O)N4CCN(C)CC4)ccc3OCC)nc12", "note": "[sildenafil, 1-[4-ethoxy-3-(6,7-dihydro-1-methyl-7-oxo-3-propyl-1H-pyrazolo[4,3-d]pyrimidin-5-yl)phenylsulphonyl]-4-methylpiperazine]", "values": [{"measurement": "absolute bioavailability", "setting": "[1]", "value": "about 40%"}, {"measurement": "direct relaxant effect on isolated corpus cavernosum", "setting": "[2]", "value": "no direct relaxant effect"}]}]}
